Like-named read-outs stand apart in the source and are kept apart here. Values belong to the compound of their own block, whether it stands above or below them.
How the values were obtained:
[1] = system: MC1R-expressing B16/F1 tumor xenografts; assay: In vivo biodistribution in B16/F1 xenograft-bearing nude mice; design: species or system mouse
Description: (§1) B16/F1 cells (3x10^6) in a volume of 150 μL 0.9% NaCl were inoculated subcutaneously on the right shoulder of NMRI-Foxn1^nu /Foxn1^nu mice (Janvier Labs, Saint-Berthevin, France). After 1–2 weeks of growth, tumor bearing mice were injected with approximately 5 MBq of ^68Ga-DOTA-NAPamide in a volume of 100 μL 0.9% NaCl into a lateral tail vein via a catheter. Mice were sacrificed and dissected 1 h after injection. The B16F1 tumor, blood, stomach, pancreas, small intestine, colon, liver, spleen, kidney, heart, lung, muscle and femur samples were weighed and uptake of radioactivity was measured by a gamma counter (Wallac 1470 Wizard, Perkin Elmer, Waltham, MA, USA). To determine the effect of unlabeled ligand on tumor uptake, either 50 pmol or 500 pmol non-labeled DOTA-NAPamide were co-injected.

[2] = as above; design: species or system mouse; settings: NMRI-Foxn1nu/Foxn1nu, mouse, iv, 5 MBq, total radioactivity; for tissue uptake at 1 h: 1 h after i.v. injection; for tissue to tissue ratio at 1 h: Fig 3
Description: as §1

[3] = In vivo PET/MRI imaging of mice bearing B16/F1 tumors (SUV by VOI); design: species or system mouse; settings: NMRI-Foxn1nu/Foxn1nu, mouse, B16/F1 tumor, iv, total radioactivity; for SUV: dynamic PET; for SUV at 1 h: 1 h post injection, n = 1
Description: (§2) B16/F1 cells (3x10^6) in a volume of 150 μL 0.9% NaCl were inoculated subcutaneously on the right shoulder of NMRI-Foxn1^nu /Foxn1^nu mice (Janvier Labs, Saint-Berthevin, France). After 1–2 weeks of growth, tumor bearing mice were injected with approximately 15 MBq of ^68Ga-DOTA-NAPamide in a volume of approximately 150 μL 0.9% NaCl into a lateral tail vein via a catheter. Positron emission tomography (PET) / magnetic resonance imaging (MRI) (1 Tesla nanoScan PET/MRI Mediso, Budapest, Hungary) was performed at Berlin Experimental Radionuclide Imaging Center (BERIC), Charité –Universitätsmedizin Berlin. Anatomic MRI scans were acquired using a T2-weighted 2D fast spin echo sequence (T2 FSE 2D) with the following parameters: coronal sequentially, matrix 256x256x20 with dimensions 0.36x0.36x1.5mm^3, TR: 8695 ms, TE: 103 ms, and a flip angle of 180°. PET scans were performed for 90 min starting directly before intravenous injection of tracer. PET images were reconstructed from the raw data with the following image sequence: 6 x 10 s, 6 x 30 s, 5 x 60 s and 8 X 600 s. The tracer standardized uptake value (SUV) in the tumor tissue was determined by manual contouring of a volume of interest (VOI) of the PET images using PMOD 3.610 (PMOD Technologies, Zürich, Switzerland).

B16/F1 tumors = assay: as above; design: species or system mouse; settings: dynamic PET, all tested conditions, after injection
Description: as §2

tumor = settings: 4 h p.i., 111In and 67Ga labels; cited from earlier work
[4] = target: T1, murine MC1R expressed in the B16/F1 cells (Mus musculus, UniProt Q01727); assay: Competitive binding (ligand displacement) with 125I-NDP-MSH on whole B16/F1 cells; settings: displacement of 125I-NDP-MSH, n = 3
T1 construct: endogenous in cells; host or cells: B16/F1 mouse melanoma cells (live, whole cells)
T1 sequence (Q01727 whole entry): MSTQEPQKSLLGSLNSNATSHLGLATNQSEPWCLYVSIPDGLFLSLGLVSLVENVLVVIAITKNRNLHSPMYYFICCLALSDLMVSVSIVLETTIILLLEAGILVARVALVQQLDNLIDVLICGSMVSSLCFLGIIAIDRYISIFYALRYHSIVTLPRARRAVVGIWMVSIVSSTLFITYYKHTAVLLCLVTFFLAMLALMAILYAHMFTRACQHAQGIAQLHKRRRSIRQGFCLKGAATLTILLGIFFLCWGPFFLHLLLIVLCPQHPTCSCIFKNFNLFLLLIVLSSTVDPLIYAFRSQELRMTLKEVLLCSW
Description: [Nle^4,d-Phe^7]-melanocyte-stimulating hormone (NDP-MSH) was iodinated with Na^125I by the chloramine-T method and it was purified from unlabeled peptide by HPLC as described before. Saturation and competitive binding studies were performed with live cells. 40.000 B16/F1 cells were seeded per well into a 96-well flat bottom cell culture plate. For competitive binding, medium was removed and 50 μL of binding buffer (50 mM 4-(2-hydroxyethyl)-1-piperazineethanesulfonic acid (HEPES) pH 7.4, 5 mM MgCl2, 1 mM CaCl2, 0.5% BSA, protease inhibitor cocktail cOmplete [Roche Applied Science, Penzberg, Germany]) with increasing concentrations of non-radioactive peptide was added to the cells. Additionally, 50 μL binding buffer with 100,000 counts per minute (cpm) of ^125I-NDP-MSH was added. After 30 minutes of incubation at 37°C, cells were washed 4 times with cold washing buffer (50 mM Tris-HCl pH 7.4, 125 mM NaCl, 0.05% BSA). 100 μL 1 N NaOH was added to lyse cells. Lysates were transferred into vials and measured using a gamma counter (Wallac 1470 Wizard, PerkinElmer, Waltham, MA, USA). The saturation assay was performed by adding 100 μL of binding buffer with increasing amounts of ^125I-NDP-MSH to the cells in the presence or absence of 1 μM of unlabeled NDP-MSH.

[5] = B16/F1 cells, Fig 1B (impact of gallium chelation)

decrease in tumor uptake vs purified tracer alone ([1]; 500 pmol coinjected unlabeled peptide, 1 h): approximately 6 fold
increase in tumor uptake, purified vs non-purified ([1]; 1 h post injection): more than 8 fold
tumor uptake ([1]; HPLC-purified tracer, 1 h after i.v. injection, ~5 MBq, ± 95% CI, n = 7): 7.0% ± 1.7%
tumor uptake ([1]; non-purified tracer (standard procedure), 1 h after i.v. injection, ~5 MBq, ± 95% CI, n = 7): 0.78% ± 0.55%
tumor uptake ([1]; purified tracer + coinjection of 50 pmol (1,000-fold) cold DOTA-NAPamide, 1 h, Fig 4, n = 3, ± 95% CI): 3.8% ± 3.6%
tumor uptake ([1]; purified tracer + coinjection of 500 pmol (10,000-fold) cold DOTA-NAPamide, 1 h, Fig 4, n = 3, ± 95% CI): 1.1% ± 0.5%
tumor uptake ([1]; purified tracer alone, 5 MBq (~50 fmol), 1 h, Fig 4, n = 3, ± 95% CI): 6.7% ± 1.9%
kidney uptake ([1]; purified tracer, 1 h after i.v. injection, ± 95% CI): 3.0% ± 0.6%
kidney uptake ([1]; standard procedure (non-purified), 1 h after i.v. injection, ± 95% CI): 4.6% ± 2.7%
tissue uptake at 1 h ([2]; B16/F1 tumor, HPLC-purified tracer, ~5 MBq, ± 95% CI, n = 7, read-out: tumor uptake): 7 %ID/g
tissue uptake at 1 h ([2]; B16/F1 tumor, non-purified tracer (standard procedure), ~5 MBq, ± 95% CI, n = 7, read-out: tumor uptake): 0.78 %ID/g
tissue uptake at 1 h ([2]; all other tissues (except tumor and kidneys), mostly below, read-out: uptake in all other tissues (except tumor and kidneys)): < 0.5 %ID/g
tissue to tissue ratio at 1 h ([2]; tumor / all other organs investigated, HPLC-purified tracer, read-out: tumor-to-tissue ratios for all other organs investigated): > 15
tissue to tissue ratio at 1 h ([2]; tumor / kidney, HPLC-purified tracer, read-out: tumor-to-kidney ratio): 2.33
SUV ([3]; 15 MBq, the other tumors (other three formulations), read-out: initial amount of radioactivity in the tumor (mean SUV)): 0.43 SUV
SUV at 1 h ([3]; 15 MBq, purified tracer): 0.42 SUV
SUV at 1 h ([3]; 15 MBq, unpurified tracer (standard procedure)): 0.119 SUV
SUV ([3]; animal with 1,000-fold excess of cold peptide mass, read-out: initial amount of radioactivity in the tumor (SUV)): 0.63 SUV
SUV at 1 h ([3]; purified + 1,000-fold excess of cold peptide): 0.367 SUV
SUV at 1 h ([3]; purified + 10,000-fold excess of unlabeled peptide): 0.152 SUV
time to maximum tracer level in the tumors (B16/F1 tumors): 5 to 10 min
Compound: CCCC[C@H](NC(C)=O)C(=O)N[C@@H](CC(=O)O)C(=O)N[C@@H](Cc1c[nH]cn1)C(=O)N[C@H](Cc1ccccc1)C(=O)N[C@@H](CCCNC(=N)N)C(=O)N[C@@H](Cc1c[nH]c2ccccc12)C(=O)NCC(=O)N[C@@H](CCCCNC(=O)CN1CCN(CC(=O)O)CCN(CC(=O)O)CCN(CC(=O)O)CC1)C(N)=O [68Ga-DOTA-NAPamide, metal not drawn]

Ki [4, 5]: 0.4 nM
Ki ([4]; whole B16/F1 cells, Fig 1A): 0.37 nM
Compound: CCCC[C@H](NC(C)=O)C(=O)N[C@@H](CC(=O)O)C(=O)N[C@@H](Cc1c[nH]cn1)C(=O)N[C@H](Cc1ccccc1)C(=O)N[C@@H](CCCNC(=N)N)C(=O)N[C@@H](Cc1c[nH]c2ccccc12)C(=O)NCC(=O)N[C@@H](CCCCNC(=O)CN1CCN(CC(=O)O)CCN(CC(=O)O)CCN(CC(=O)O)CC1)C(N)=O [DOTA-NAPamide, Acetyl-Nle-Asp-His-D-Phe-Arg-Trp-Gly-Lys(DOTA)-NH2]
tumor uptake (tumor): 7.56% to 9.43%

Ki [4, 5]: 0.43 nM
Compound: Ga-labeled DOTA-NAPamide: DOTA-NAPamide complexed with non-radioactive Ga (XDHFRWGK; Linear alpha-MSH analogue Ac-Nle-Asp-His-D-Phe-Arg-Trp-Gly-Lys(DOTA)-NH2: N-terminal acetyl; X1 = norleucine; D-Phe4; Lys8 side chain conjugated to DOTA chelating non-radioactive Ga; C-terminal amide)

— article PMC6548402, “Increasing molar activity by HPLC purification improves ^68Ga-DOTA-NAPamide tumor accumulation in a B16/F1 melanoma xenograft model” (PLoS ONE, 2019)
